# Results from patent publication US20260070921A1, “COMPOUND, ENDOPLASMIC RETICULUM STRESS INHIBITOR, PHARMACEUTICAL PRODUCT, OPHTHALMIC AGENT, EYE DROPS, COMPOSITION, AND METHOD FOR PRODUCING COMPOUND” (KYOTO UNIVERSITY, priority 2022, published 2026).
# How the values were obtained:
# [1] = target: denatured BSA-flu (Bos taurus, UniProt P02769); experiment: Co-assembly with fluorescently labeled BSA (BSA-flu), confocal imaging; assay type: binding; conditions: 25° C. 19 h, excess unlabeled BSA 2.0 mg/mL
# Procedure: To prepare denatured BSA-flu, a solution of BSA-flu (1.1 mg/mL) in PBS (pH of 7.4) was incubated at 80° C. for 1 hour. Native or denatured BSA-fluorescein (final concentration: 0.1 mg/mL) was added to a solution of compound 1 (100 μM) or compound 6 (25 μM) in PBS (pH of 7.4) containing 2.0 mg/mL BSA. The mixture was incubated at 25° C. for 19 hours and then images were taken with a CV1000 confocal microscope. The fluorescence intensity of the co-assemblies was quantified from the images obtained using ImageJ software.
# [2] = system: HEK293 cells; experiment: Fluorescence imaging of self-assemblies in living cells (DCVJ); assay type: cell-based; conditions: DCVJ 1.0 μM
# Procedure: HEK293 cells were incubated with compound 1, 4, 5, or 6 (25 or 100 μM) in the presence of 1.0 μM DCVJ in DMEM (10% FBS). Fluorescence and bright-field images were taken with a CV1000 confocal microscope equipped with a 40× objective lens (Yokogawa Electric Corporation).
# The ability of compound 1 and its derivatives, compounds 4 to 6, to form assemblies was also monitored in living cells. […] HEK293 cells were treated with compound 1, 4, 5, or 6 (25 μM or 100 μM) and 1.0 μM of DCVJ for 8 hours. Fluorescence and bright-field images were taken with a CV1000 confocal microscope. HEK293 cells were treated with compound 1, 4, 5, or 6 (25 or 100 μM) and DCVJ (1.0 μM) for 8 hours and observed with a confocal microscope. […] The self-assembling ability of the molecules of compound 6 may be due to its cellular activity at that concentration, even at 25 μM. […] To further support the importance of self-organization formation in cellular activity, dose-response curves for compounds 1 and 6 were determined. The biological activity of the compounds' molecular assembly is expected to be more cooperative than that of the monomer and to show a steeper dose-response curve (Reference Material 18 below). […] Compound 6 is referred to as “selfonamide” below. […] P. A High-Throughput Screen for Aggregation-Based Inhibition in a Large Compound Library. J Med Chem 2007, 50 (10), 2385-2390. https://doi.org/10.1021/jm061317y.
# [3] = system: fibronectin; experiment: Western blotting of TGF-β2-induced fibronectin production in iFECD; assay type: cell-based, human; conditions: TGF-β2 stimulated iFECD
# Procedure: 5 μg of the extracted proteins were separated by SDS-PAGE and transferred to a nitrocellulose membrane. The primary antibodies used were mouse anti-fibronectin antibody (BD Bioscience, 610077) and mouse anti-GAPDH antibody (MBL, M171-3). The secondary antibodies used were peroxidase-labeled anti-rabbit antibody and anti-mouse antibody (GE Healthcare Biosciences, NA931V, NA934V). The primary antibodies were diluted as follows: mouse anti-fibronectin antibody, 15,000-fold; and mouse anti-GAPDH antibody, 5,000-fold. The secondary antibodies were diluted 5,000-fold. For detection, Chemi Lumi ONE Ultra (Nacalai Tesque, 11644-40) was used. The intensity of the detected bands was analyzed using a LAS-4000mini lumino image analyzer (Fujifilm) and ImageQuant™ software (GE Healthcare).
# [4] = target: BSA (Bos taurus, UniProt P02769); experiment: Native PAGE analysis of heat-induced BSA denaturation; assay type: biochemical; conditions: 75° C. 1 h; compounds 100 μM, PBA 10 mM
# Procedure: Samples were subjected to native PAGE analysis using 8% acrylamide gels in 0.1 M Tris-HCl, pH of 7.8 (cathode) and 68 mM glycine, 53 mM Tris-HCl, pH of 8.9 (anode). After staining the gel with Coomassie Brilliant Blue, images were taken using an ImageQuant LAS500 imager (Cytiva).
# [5] = system: caspase 3; experiment: Western blotting of TGF-β2-induced caspase activation in iFECD; assay type: cell-based, human; conditions: TGF-β2 stimulated iFECD
# Procedure: In order to collect floating cells and dead cells, the medium was collected on ice, and the solution resulting from washing cells with 1×PBS(−) twice was also collected and centrifuged at 4° C. at 800 g for 12 minutes, followed by discarding the supernatant, thereby obtaining a precipitate. Proteins were extracted from the washed cells by adding a protein extraction buffer (RIPA; 50 mM Tris-HCl (pH of 7.4), 150 mM NaCl, 1 mM EDTA, 0.1% SDS, 0.5% DOC, 1% NP-40) on ice. Thereafter, the precipitate obtained after centrifugation of the floating cells and dead cells was suspended together and extracted. The collected liquid was pulverized in cold water for 30 seconds three times with an ultrasonic device (BIORUPTOR, Tosho Denki) and then centrifuged at 4° C. at 15000 rpm for 10 minutes to collect the protein supernatant.
# 5 to 8 μg of the extracted proteins were separated by SDS-PAGE and transferred to a nitrocellulose membrane. The primary antibodies used were rabbit anti-Caspase 3 antibody (Cell Signaling, 9662), rabbit anti-PARP antibody (Cell Signaling, 9542), and mouse anti-GAPDH antibody (MBL, M171-3). […] The intensity of the detected bands was analyzed using a LAS-4000mini lumino image analyzer (Fujifilm) and ImageQuant™ software (GE Healthcare).
# Chain of denatured BSA-flu (P02769 25-607): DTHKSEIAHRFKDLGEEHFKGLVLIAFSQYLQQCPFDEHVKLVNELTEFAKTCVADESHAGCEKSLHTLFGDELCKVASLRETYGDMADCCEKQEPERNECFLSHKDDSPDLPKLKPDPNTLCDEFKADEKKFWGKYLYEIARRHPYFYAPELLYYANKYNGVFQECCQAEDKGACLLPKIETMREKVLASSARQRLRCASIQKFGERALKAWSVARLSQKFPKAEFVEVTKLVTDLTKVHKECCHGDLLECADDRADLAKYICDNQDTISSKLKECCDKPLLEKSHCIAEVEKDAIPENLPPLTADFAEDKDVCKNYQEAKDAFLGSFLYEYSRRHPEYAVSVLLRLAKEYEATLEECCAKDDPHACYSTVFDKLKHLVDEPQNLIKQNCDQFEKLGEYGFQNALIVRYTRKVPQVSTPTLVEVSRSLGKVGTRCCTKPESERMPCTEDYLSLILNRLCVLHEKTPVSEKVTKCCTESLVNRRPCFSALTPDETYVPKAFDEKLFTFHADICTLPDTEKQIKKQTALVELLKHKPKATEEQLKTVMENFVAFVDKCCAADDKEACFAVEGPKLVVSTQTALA
# Chain of BSA (P02769 25-607): as above
Structure (SMILES),Co-assembly with native or denatured BSA-flu [1],"Assemblies within cells ([2]; 25 μM, 8 h)",Fibronectin production [3],Inhibition of heat-induced denaturation of BSA [4],Cleaved active caspase 3 (about 17 kDa) [5],"Fluorescent particles within cells ([2]; 100 μM, after 8 hours)"
COc1ccc2c(c1)sc1c(=O)nc3nc(Nc4ccc(S(N)(=O)=O)cc4)ccn3c12 [compound 6],selectively formed co-assemblies with heat-denatured BSA,showed detectable assemblies within cells,almost no production of fibronectin was observed,does not exhibit activity to inhibit the thermal denaturation of BSA,hardly detected,–
NS(=O)(=O)c1ccc(Nc2ccn3c(n2)nc(=O)c2sc4cc(F)ccc4c23)cc1 [compound 1],selectively formed co-assemblies with heat-denatured BSA,–,almost no production of fibronectin was observed,does not exhibit activity to inhibit the thermal denaturation of BSA,hardly detected,fluorescent particles were observed within the cells
